IC50 data for 3 molecules are collected here from patent publication US6710048B2, “Pyrazine derivatives as modulators of tyrosine kinases” (Ortho-McNeil Pharmaceutical, Inc., priority 2000, dated 2004).

Where two headings read alike, the source gives them in different places.

The test system of one assay is MDA-MB-231. As to the kind of experiment: Cell proliferation assay (14C-thymidine incorporation), MDA-MB-231. The assay is classed as cell-based. Particulars: Homo sapiens, read-out: Inhibition of cell proliferation IC50. As to the method: (§1) The ability of a test compound to inhibit the proliferation of cell growth was determined by measuring incorporation of ^14C-labelled thymidine into newly synthesized DNA within the cells. This method was used on cell lines derived from carcinomas originating from several tissues such as HeLa cervical adenocarcinoma (American Type Culture Collection (ATCC), Virginia, Cat. #CCL-2), A375 malignant melanoma (ATCC CRL-1619), SK-OV-3 ovarian adenocarcinoma (ATCC HTB-77) HCT-116 colon carcinoma (CCL-247) and PC-3 prostate adenocarcinoma (ATCC CRL-1435). The method was also used on primary cells such as HUVEC endothelial cells (ATCC CRL-1730). In this way the effect of a compound on cell growth of cells with many different phenotypes can be determined. Cells were trypsinized and counted and 3000-8000 cells were added to each well of a 96-well CytoStar tissue culture treated scintillating microplate (Amersham #RPNQ0160) in complete medium in a volume of 100 μl. Cells were incubated for 24 hours in complete medium at 37° C. in an atmosphere containing 5% CO2.
(§2) Next, 1 μl of test compound in 100% DMSO was added to the wells of the plate. DMSO only was added to control wells. Cells were incubated for 24 more hours in complete medium at 37° C. in an atmosphere containing 5% CO2. Methyl ^14C-thymidine 56 mCi/mmol (NEN #NEC568 or Amersham #CFA532) was diluted in complete medium and 0.2 μCi/well was added to each well of the CytoStar plate in a volume of 20 μl. The plate was incubated for 24 hours at 37° C. plus 5% CO2 in drug plus ^14C-thymidine. The contents of the plate were discarded into a ^14C radioactive waste container by inverting the plate and the plate was washed twice with 200 μl PBS. 200 μl of PBS is then added to each well. The top of the plate was sealed with a transparent plate sealer and a white plate backing sealer (Packard #6005199) was applied to the bottom of the plate. The degree of Methyl ^14C-thymidine incorporation was quantified on a Packard Top Count.
Background: Uptake of a labelled nucleoside into DNA is a usual measure of proliferation.

The test system of the next assay is HCT-116 colon carcinoma. The assay can be described thus: Cell proliferation assay (14C-thymidine incorporation), HCT-116. It counts as cell-based. The conditions noted are these: Homo sapiens, read-out: Inhibition of cell proliferation IC50. As to the method:
as §1, §2

In assay [1] the test system is PC-3 prostate adenocarcinoma. As to the kind of experiment: Cell proliferation assay (14C-thymidine incorporation), PC-3. The assay is classed as cell-based. The conditions noted are these: Homo sapiens, read-out: Inhibition of cell proliferation IC50. As to the method: as §1, §2
Assay [2] deals with HeLa cervical adenocarcinoma. The assay can be described thus: Cell proliferation assay (14C-thymidine incorporation), HeLa. It counts as cell-based. Particulars: Homo sapiens, read-out: Inhibition of cell proliferation IC50. As to the method: as §1, §2
In another assay the target is HER2 (Homo sapiens, UniProt P04626). The assay can be described thus: HER2 kinase selectivity assay. The assay is classed as biochemical. The conditions noted are these: Table 4 kinase selectivity; read-out: IC50, Assay 16 HER2. As to the method: (§3) Assays to test compound inhibition of other kinases were preformed using methods that measure the amount of phosphorylation of a biotinylated peptide substrate. Biotinylated peptide substrates were selected from the literature as appropriate for the enzyme being evaluated. The general procedure used to assay for kinase activity is as follows: A kinase reaction mix was prepared in 50 mM Tris-HCl pH=8, 10 mM MgCl2, 0.1 mM NaVO4, 1 mM DTT, 5-10 μM ATP, 0.25-1 μM biotinylated peptide substrate, 0.2-0.8 μCuries per well ^33P-γ-ATP [2000-3000 Ci/mmol]. Assay conditions vary slightly for each protein kinase, for example, insulin receptor kinase requires 10 mM MnCl2 for activity and Calmodulin-dependent protein kinase requires calmodulin and 2 mM CaCl2. The reaction mixture was dispensed into the wells of a streptavidin coated Flashplate and 1 μl drug stock in 100% DMSO was added to a 100 μl reaction volume resulting in a final concentration of 1% DMSO in the reaction. Enzyme was diluted in 50 mM Tris-HCl pH=8.0, 0.1% BSA and added to each well. The reaction was incubated for one hour at 30° C. in the presence of compound. After one hour the reaction mix was aspirated from the plate and the plate was washed with PBS containing 100 mM EDTA. The plate was read on a scintillation counter to determine ^33P-γ-ATP incorporated into the immobilized peptide. Test compounds were assayed in duplicate at 8 concentrations [100 tM, 10 μM, 1 μM, 100 nM, 10 nM, 1 nM, 100 μM, 10 μM]. A maximum and minimum signal for the assay was determined on each plate. The IC50 was calculated from the dose response curve of the percent inhibition of the maximum signal in the assay according to the formula [max signal−background/test compound signal−background (100)=% inhibition] by graphing the percent inhibition against the log concentration of test compound. Known inhibitor compounds appropriate for the kinase being assayed were also included on each plate.

In the next assay the target is FGF-R2 (Homo sapiens, UniProt P21802). The assay can be described thus: FGF-R2 kinase selectivity assay. The assay is classed as biochemical. Particulars: Table 4 kinase selectivity; read-out: IC50, Assay 15 FGF-R2. As to the method:
as §3

In assay [3] the target is T1, VEGF-R (vascular endothelial growth factor receptor-2) (Rattus norvegicus, UniProt O08775).
T1 construct: polyhistidine (6xHis) (N)
As to the kind of experiment: VEGF-R screening assay (33P FlashPlate kinase assay). It counts as biochemical. As to the method:
A kinase reaction mixture was prepared containing 50 mM Tris-HCl pH=8, 10 mM MgCl2, 0.1 mM NAPO4, 1 mM DTT, 10 μM ATP, 0.025 μM biotinylated peptide substrate and 0.8 μCuries per well ^33P-γ-ATP [2000-3000 Ci/mmol]. 70 μl of the kinase reaction mixture was dispensed into the well of a streptavidin coated FlashPlate™ (Cat. # SMP103, NEN, Boston, Mass.). Then 1 μl of test compound stock in 100% DMSO was added to the wells resulting in a final concentration of 1% DMSO in the reaction with a 100 μl final reaction volume. Next, soluble rat tyrosine kinase containing an N-terminal 6×HIS tag was diluted in 50 mM Tris-HCl pH=8.0, 0.1% BSA at a concentration of 5 ng per microliter and 30 μl (150 ng enzyme per test well) was added to each well to initiate the reaction. The reaction was incubated for one hour at 30° C. At the end of the 1-hour incubation, the reaction was terminated by aspirating the reaction mixture from the plate and washing the wells twice with PBS containing 100 mM EDTA. The PLCI biotinylated peptide substrate becomes immobilized on the Flashplate™ and the incorporation of ^33P-γ-ATP was measured by reading the plate on a scintillation counter. Inhibition of the enzymatic activity of the VEGF-R was measured by observing a reduced amount of ^33P-γ-ATP incorporated into the immobilized peptide.
(§4) The term n.d. means not tested.
as §3
VEGF-R (vascular endothelial growth factor receptor-2) is a fusion protein containing a polyhistidine tag at the N-terminus followed by amino acids 786-1343 of the rat VEGF-R2 kinase domain (GenBank Accession #U93306). CDK1 (cyclin dependent kinase 1) is isolated from insect cells expressing both the human CDK1 catalytic subunit and its positive regulatory subunit cyclin B (New England Biolabs, Beverly, Mass., Cat. #6020). CDK4 (cyclin dependent kinase 4) contains amino acids 769 to 921 of the mouse […] protein found in the GST-retinoblastoma protein construct (Santa Cruz Biotechnology, Santa Cruz, Calif.; Cat. #SC-4112). […]

In assay [4] the target is T2, CDK1 (cyclin dependent kinase 1) / cyclin B (Homo sapiens, UniProt P06493).
T2 construct: purchased New England Biolabs 6020; host or cells: insect cells
As to the kind of experiment: CDK1 kinase assay. The assay is classed as biochemical. As to the method: as §4
as §3, with “Test compounds were assayed in duplicate at 8 concentrations [100 tM, 10 μM, 1 μM, 100 nM, 10 nM, 1 nM, 100 μM, 10 μM].” left out
VEGF-R (vascular endothelial growth factor receptor-2) is a fusion protein containing a polyhistidine tag at the N-terminus followed by amino acids 786-1343 of the rat VEGF-R2 kinase domain (GenBank Accession #U93306). CDK1 (cyclin dependent kinase 1) is isolated from insect cells expressing both the human CDK1 catalytic subunit and its positive regulatory subunit cyclin B (New England Biolabs, Beverly, Mass., Cat. #6020). CDK4 (cyclin dependent kinase 4) contains amino acids 769 to 921 of the mouse […] protein found in the GST-retinoblastoma protein construct (Santa Cruz Biotechnology, Santa Cruz, Calif.; Cat. #SC-4112). Insulin Receptor Kinase consists of residues 941-1313 of the cytoplasmic domain of the beta-subunit of the human insulin receptor (BIOMOL, Plymouth Meeting, Pa., Cat. #SE-195). Protein Kinase A is the catalytic subunit of cAMP dependent protein kinase-A purified from bovine heart (Upstate Biotech, Lake Placid, N.Y., Cat#14-114). PKC (protein kinase-C) is the gamma or beta isoform of the human protein produced in insect cells (BIOMOL, Plymouth Meeting, Pa., Cat. #SE-143). Casein Kinase 1 is a truncation at amino acid 318 of the C-terminal portion of the rat CK1 delta isoform produced in E.coli (New England Biolabs, Beverly, Mass., Cat. #6030). Casein Kinase 2 includes the alpha and beta subunits of the human CK2 protein produced in E.coli (New England Biolabs, Beverly, Mass., Cat. #6010). Calmodulin Kinase (calmodulin-dependent protein kinase 2) is a truncated version of the alpha subunit of the rat protein produced in insect cells (New England Biolabs, Beverly, Mass., Cat. #6060). Glycogen Synthase Kinase-3 is the beta isoform of the rabbit enzyme produced in E. coli (New England Biolabs, Beverly, Mass., Cat. #6040). MAP Kinase is the rat ERK-2 isoform containing a polyhistidine tag at the N-terminus produced in E. coli. and activated by phosphorylation with MEK1 prior to purification (BIOMOL, Plymouth Meeting, Pa., Cat. #SE-137). EGFR (epidermal growth factor receptor) is purified from human A431 cell membranes (Sigma, St. Louis, Mo., Cat.# E3641). […]

T1 sequence (O08775 786-1343): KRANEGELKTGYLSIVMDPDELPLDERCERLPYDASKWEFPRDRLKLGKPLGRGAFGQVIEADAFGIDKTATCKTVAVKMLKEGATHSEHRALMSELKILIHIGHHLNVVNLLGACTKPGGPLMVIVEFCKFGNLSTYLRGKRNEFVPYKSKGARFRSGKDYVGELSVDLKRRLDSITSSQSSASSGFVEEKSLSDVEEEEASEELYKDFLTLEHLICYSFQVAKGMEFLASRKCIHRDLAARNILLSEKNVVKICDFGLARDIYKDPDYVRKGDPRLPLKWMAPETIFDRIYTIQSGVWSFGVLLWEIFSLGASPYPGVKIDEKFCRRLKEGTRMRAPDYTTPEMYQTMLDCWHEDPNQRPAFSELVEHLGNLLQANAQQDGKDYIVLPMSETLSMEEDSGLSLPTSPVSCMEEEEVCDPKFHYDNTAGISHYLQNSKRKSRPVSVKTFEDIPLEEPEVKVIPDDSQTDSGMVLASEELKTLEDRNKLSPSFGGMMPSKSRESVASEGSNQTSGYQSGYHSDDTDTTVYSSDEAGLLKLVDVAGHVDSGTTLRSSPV
T2 sequence (P06493 whole entry): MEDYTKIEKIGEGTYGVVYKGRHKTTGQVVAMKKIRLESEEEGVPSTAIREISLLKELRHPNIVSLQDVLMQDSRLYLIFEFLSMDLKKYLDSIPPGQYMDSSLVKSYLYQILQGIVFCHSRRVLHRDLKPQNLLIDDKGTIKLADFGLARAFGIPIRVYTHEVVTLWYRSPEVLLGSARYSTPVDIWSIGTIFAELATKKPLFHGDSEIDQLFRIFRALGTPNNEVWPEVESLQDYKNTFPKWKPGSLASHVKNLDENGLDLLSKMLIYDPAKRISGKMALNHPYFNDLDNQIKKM
T2 sequence (P14635 whole entry partner): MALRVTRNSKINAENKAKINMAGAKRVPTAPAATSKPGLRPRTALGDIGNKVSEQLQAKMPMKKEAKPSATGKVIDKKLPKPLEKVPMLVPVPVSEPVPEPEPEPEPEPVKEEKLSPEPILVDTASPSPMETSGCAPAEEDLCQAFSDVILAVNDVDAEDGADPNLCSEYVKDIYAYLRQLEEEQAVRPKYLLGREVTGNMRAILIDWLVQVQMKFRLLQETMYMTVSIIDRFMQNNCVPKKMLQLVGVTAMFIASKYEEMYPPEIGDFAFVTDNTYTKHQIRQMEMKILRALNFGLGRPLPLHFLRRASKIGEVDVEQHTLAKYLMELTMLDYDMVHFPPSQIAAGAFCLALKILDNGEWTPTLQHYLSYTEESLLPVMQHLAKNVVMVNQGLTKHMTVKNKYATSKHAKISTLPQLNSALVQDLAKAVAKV
HER2, sequence (P04626 23-1255, species assumed): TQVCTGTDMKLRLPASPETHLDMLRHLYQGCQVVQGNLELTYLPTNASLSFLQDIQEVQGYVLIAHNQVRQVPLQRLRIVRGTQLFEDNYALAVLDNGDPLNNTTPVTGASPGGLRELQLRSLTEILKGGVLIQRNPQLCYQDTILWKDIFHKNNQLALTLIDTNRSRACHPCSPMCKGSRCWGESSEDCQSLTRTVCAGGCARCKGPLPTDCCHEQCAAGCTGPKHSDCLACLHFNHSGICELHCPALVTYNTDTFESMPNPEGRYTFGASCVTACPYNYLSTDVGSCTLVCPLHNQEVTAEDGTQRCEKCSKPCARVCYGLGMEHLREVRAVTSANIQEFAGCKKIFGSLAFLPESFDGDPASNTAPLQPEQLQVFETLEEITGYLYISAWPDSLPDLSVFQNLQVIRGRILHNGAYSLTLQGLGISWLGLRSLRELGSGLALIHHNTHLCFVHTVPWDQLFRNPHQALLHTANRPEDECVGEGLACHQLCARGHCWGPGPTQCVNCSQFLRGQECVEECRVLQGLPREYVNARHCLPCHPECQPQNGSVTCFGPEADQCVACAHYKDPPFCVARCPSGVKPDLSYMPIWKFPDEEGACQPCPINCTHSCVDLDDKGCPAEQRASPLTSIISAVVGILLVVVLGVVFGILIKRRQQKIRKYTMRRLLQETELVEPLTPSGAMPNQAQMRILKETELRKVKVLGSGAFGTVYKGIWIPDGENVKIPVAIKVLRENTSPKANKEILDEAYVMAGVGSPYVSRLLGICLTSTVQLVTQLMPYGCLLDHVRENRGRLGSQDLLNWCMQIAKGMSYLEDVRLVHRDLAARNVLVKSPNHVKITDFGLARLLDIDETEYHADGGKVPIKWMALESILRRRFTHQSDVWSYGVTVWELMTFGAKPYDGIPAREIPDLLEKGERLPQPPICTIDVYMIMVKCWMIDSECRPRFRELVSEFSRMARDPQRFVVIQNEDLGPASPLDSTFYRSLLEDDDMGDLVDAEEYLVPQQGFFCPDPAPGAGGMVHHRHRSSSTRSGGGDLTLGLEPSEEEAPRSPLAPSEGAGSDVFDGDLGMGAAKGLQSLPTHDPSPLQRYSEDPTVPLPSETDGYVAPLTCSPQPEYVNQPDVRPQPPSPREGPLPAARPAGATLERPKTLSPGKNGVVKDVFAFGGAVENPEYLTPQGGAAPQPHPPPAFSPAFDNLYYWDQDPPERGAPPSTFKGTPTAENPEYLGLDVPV
FGF-R2, sequence (P21802 22-821, species assumed): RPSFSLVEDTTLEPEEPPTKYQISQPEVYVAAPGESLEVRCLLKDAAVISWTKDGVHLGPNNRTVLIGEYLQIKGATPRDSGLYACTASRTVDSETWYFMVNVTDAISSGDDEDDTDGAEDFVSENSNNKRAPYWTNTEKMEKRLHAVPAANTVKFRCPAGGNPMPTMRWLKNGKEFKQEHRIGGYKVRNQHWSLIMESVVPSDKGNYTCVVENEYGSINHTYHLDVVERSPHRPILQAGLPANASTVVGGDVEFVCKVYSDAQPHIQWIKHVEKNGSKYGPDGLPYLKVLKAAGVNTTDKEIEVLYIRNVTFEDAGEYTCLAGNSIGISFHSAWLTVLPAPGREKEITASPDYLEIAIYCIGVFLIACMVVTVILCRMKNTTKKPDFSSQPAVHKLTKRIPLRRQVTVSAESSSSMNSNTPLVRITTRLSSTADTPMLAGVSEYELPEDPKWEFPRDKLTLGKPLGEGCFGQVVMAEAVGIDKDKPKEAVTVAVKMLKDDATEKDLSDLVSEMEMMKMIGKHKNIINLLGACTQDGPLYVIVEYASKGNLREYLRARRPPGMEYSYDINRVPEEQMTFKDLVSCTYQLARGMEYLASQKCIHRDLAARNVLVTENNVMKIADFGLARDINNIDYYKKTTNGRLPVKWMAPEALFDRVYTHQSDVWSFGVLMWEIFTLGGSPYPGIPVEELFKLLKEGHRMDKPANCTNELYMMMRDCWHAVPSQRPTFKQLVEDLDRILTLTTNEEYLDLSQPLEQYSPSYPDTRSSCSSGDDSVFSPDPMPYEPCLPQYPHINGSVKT

Take `Clc1cccc(Nc2cncc(-c3cncc(NCCCc4ccncc4)c3)n2)c1` [Cmd 71, N-(3-chlorophenyl)-6-[5-[[3-(4-pyridinyl)propyl]amino]-3-pyridinyl]-2-pyrazinamine]: the IC50 in the assay on MDA-MB-231 was determined as 1880 nM; in the assay with HCT-116 colon carcinoma, 3290 nM; in assay [1], 3200 nM; in assay [2], 3800 nM.

As to `Clc1cccc(Nc2cncc(-c3cncc(NCCCc4cccnc4)c3)n2)c1` [Cmd 72, N-(3-chlorophenyl)-6-[5-[[3-(3-pyridinyl)propyl]amino]-3-pyridinyl]-2-pyrazinamine], the IC50 with MDA-MB-231 turned out to be 2570 nM; in the assay with HCT-116 colon carcinoma, 4970 nM; in assay [1] it was 2580 nM; in assay [2], 5700 nM.

Take `Clc1cccc(Nc2cncc(-c3cncc(NCCCn4ccnc4)c3)n2)c1` [Cmd 77]: the IC50 on HER2 is 966 nM; on FGF-R2, 221 nM; in assay [3] (Table 4 kinase selectivity, read-out: IC50, Assay 1 VEGF-R) it was 30 nM; in assay [3] (Tables 1-3, >10 or >100 = no 50% inhibition at highest dose tested, read-out: VEGF-R IC50), 30 nM; in assay [4] (Table 4 kinase selectivity, 10 = approximate value, read-out: IC50, Assay 2 CDK1), ~10000 nM; in assay [4] (Tables 1-3, >10 or >100 = no 50% inhibition at highest dose tested, read-out: CDK IC50) it was > 10000 nM.
